Tests used:
[1] = molecular target: T1, hER (recombinant human estrogen receptor) (Homo sapiens, UniProt P03372); experiment: Relative bond affinity (RBA) on recombinant human estrogen receptor, displacement of tritiated estradiol; type: binding; conditions: for RBA hER: Estradiol = 100, 0° C., 24 hours; for affinity for the estrogen receptor (in words): conclusion in words
T1 construct: made in house; host or cells: SF9 insect cells, recombinant baculovirus
T1 sequence (P03372 1-595): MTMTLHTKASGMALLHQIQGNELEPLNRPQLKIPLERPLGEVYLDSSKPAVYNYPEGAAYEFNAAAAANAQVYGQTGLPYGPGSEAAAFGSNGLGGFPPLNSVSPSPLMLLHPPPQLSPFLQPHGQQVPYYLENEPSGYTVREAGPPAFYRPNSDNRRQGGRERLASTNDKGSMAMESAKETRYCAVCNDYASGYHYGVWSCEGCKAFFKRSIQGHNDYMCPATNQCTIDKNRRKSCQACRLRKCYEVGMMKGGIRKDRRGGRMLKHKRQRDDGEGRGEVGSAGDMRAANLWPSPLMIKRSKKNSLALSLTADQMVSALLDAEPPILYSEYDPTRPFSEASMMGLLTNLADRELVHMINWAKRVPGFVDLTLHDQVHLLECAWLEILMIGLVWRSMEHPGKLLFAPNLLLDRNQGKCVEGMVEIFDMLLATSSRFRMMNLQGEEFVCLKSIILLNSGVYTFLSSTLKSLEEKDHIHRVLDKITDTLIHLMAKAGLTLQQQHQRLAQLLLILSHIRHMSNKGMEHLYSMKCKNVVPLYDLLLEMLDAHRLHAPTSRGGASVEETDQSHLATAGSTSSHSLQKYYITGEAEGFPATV
From the text: 1--Activity on the hormonal receptors using either the natural hormonal receptor of a rat (AR), or the recombinant human receptor (PR, GR and ER).
A supernatant of SF9 cells containing the recombinant human estrogen receptor was obtained by the process described above for the progesterone receptor using the cDNA fragment described in the HEGO expression vector by TORA et al. (EMBO Journal (1989), Vol. 8 N° 7, pp. 1981-1986), containing the region coding for the human estrogen receptor of "wild type" with a glycine in position 400. The cells were lysed in the lysis buffer (1). The supernatant was incubated at 0° C. for 24 hours with a constant concentration (T) of tritiated estradiol in the presence of increasing concentrations either of unlabelled estradiol (0-1000×10^-9 M), or of the unlabelled product under test (1 to 25000×10^-9 M). The concentration of bound tritiated estradiol (B) was then measured in each incubate by the technique of adsorption with carbon dextran.
Calculation of the relative bond affinity (RBA).
The following 2 curves were traced: percentage of bound tritiated hormone B/BO as a function of the logarithm of the concentration of unlabelled reference hormone or as a function of the logarithm of the concentration of the unlabelled product under test.
The straight line of the following equation was determined:
BO=Concentration of bound tritiated hormone in the absence of any unlabelled product,
B=Concentration of bound tritiated hormone in the presence of a concentration X of unlabelled product,
B min=Concentration of bound tritiated hormone in the presence of a large excess of cold reference hormone (500 nM). The intersections of the straight line I50 and the curves allowed the evaluation of the concentrations of unlabelled reference hormone (CH) and of the unlabelled product under test (CX) which inhibited by 50% the specific binding of the tritiated hormone on the receptor.
The relative bond affinity (RBA) of the product under test was determined by the equation:
The RBA's of the reference products estradiol, progesterone, dexamethasone and testosterone were arbitrarily taken to be equal to 100.

[2] = tested on: MCF-7 human breast tumour cells; experiment: Anti-proliferative activity on the growth of MCF-7 human breast tumour cells (DNA dosage); type: cell-based; conditions: MCF7, stimulated by EGF + PDGF, D7 to D9, read-out: IC50, concentration which inhibited by 50% the growth of the MCF-7 cells
Description: 2--Anti-proliferative activity on the growth of MCF-7 human breast tumour cells
The MCF-7 lines were maintained in culture in a base medium (according to 1) containing 5% of foetal calf serum at 37° C. under a humid atmosphere containing 5% CO2. The subconfluent cells were collected by trypsination (0.1% trypsin, 0.02% EDTA) and then rinsed by gentle centrifuging. A sample of the cells in suspension was counted with a Malassez cell.
The cells were resuspended in a base medium without phenol red in the presence of 5% of steroid-free FCS, and stimulated either by 0.1 nM of estradiol, or by 10 ng/ml of EGF+1 ng/ml of PDGF. The cells were seeded at a rate of 50,000 cells per well in multi-well plates (24 wells of 2.5 cm^2). Twenty-four hours after the seeding (DO), the product to be tested was added to the mixture in ethanolic solution (final concentration of ethanol: 0.1%), at a concentration of 10^-11 to 10^-6 M, the control wells receiving the same concentration of ethanol. The media containing the products were renewed every 48 hours. At the end of the experiment (D7 to D9), the mixture was extracted and the cells were immediately fixed with 250 microliters of methanol to dose the DNA. The anti-proliferative activity of the products was evaluated by their capacity to inhibit the increase of DNA relative to the control.
The DNA was dosed by a fluorimetric method using DABA (3,5diaminobenzoic acid) (according to 2): 200 microliters of DABA were added to each well and the plates were incubated for 45 minutes at 56° C. Then, 2 ml of 1N HCl were added and the fluorescence was measured using a fluorimeter (excitation wavelength: 408 nm, emission wavelength: 510 nm). The quantity of DNA per well was evaluated relative to a reference scale obtained by treating a calf thymus DNA standard under the same conditions.
The concentration in nM which inhibited by 50% the growth of the MCF-7 cells stimulated by EGF +PDGF (IC50) was determined in the manner indicated above.

Row | SMILES | RBA hER [1] | affinity for the estrogen receptor (in words) [1] | IC50 [2] [nM]
1 | CCCCNS(=O)(=O)CCCCCOc1ccc([C@H]2C[C@]3(C)[C@@H](O)CC[C@H]3[C@@H]3CCc4cc(O)ccc4[C@H]32)cc1 [Example 2, N-butyl-5-[4-(Δ1,3,5(10)-estratrien-3,17β-diol-11β-yl)phenoxy]-pentanesulfonamide] | 21 | marked affinity | 0.016
2 | CCCCN(C)S(=O)(=O)CCCCCOc1ccc([C@H]2C[C@]3(C)[C@@H](O)CC[C@H]3[C@@H]3CCc4cc(O)ccc4[C@H]32)cc1 [Example 7, N-butyl-5-[4-(Δ1,3,5(10)-estratrien-3,17β-diol-11β-yl)phenoxy]-N-methyl-pentanesulfonamide] | 4 |  | 0.015
3 | CN(CC(F)(F)C(F)(F)C(F)(F)F)S(=O)(=O)CCCCCOc1ccc([C@H]2C[C@]3(C)[C@@H](O)CC[C@H]3[C@@H]3CCc4cc(O)ccc4[C@H]32)cc1 [Example 8, 5-[4-(Δ1,3,5(10)-estratrien-3,17β-diol-11βyl)-Phenoxy]-N-(2,2,3,3,4,4,4-heptafluorobutyl)-N-methyl-pentanesulfonamide] | 19 | marked affinity | 0.026

— patent US5494907A, “11-β substituted-19-nor steroids” (Roussel UCLAF, priority 1993, dated 1996)
